Measurements from US8178552B2, “7-Azaindole derivatives and their use in the inhibition of c-Jun N-terminal kinase” (Eisai R&D Management Co., Ltd., priority 2008, dated 2012).

Columns and labels:
c-Jun phosphorylation = assay: LPS-induced c-Jun phosphorylation in spleen of mice (HTRF); format: in vivo, male C57/B16 mice; details: Mus musculus, po; 20 mg/kg p.o. 30 min before LPS 10 mg/kg i.p.; 1 hour after LPS; versus vehicle-treated animals; read-out: Percentage reduction in the level of P-c-Jun in spleen
Description: (§1) The studies were carried out in male C57/B16 mice. Compounds (20 mg/kg; p.o.) were administered 30 minutes before injection of lipopolysaccharide (LPS). LPS was administered intraperitoneally at a dose of 10 mg/kg. Animals were sacrificed 1 hour following LPS injection. Blood was collected into heparinized tubes for measurement of plasma TNFα levels and spleens were collected for the measurement of c-Jun phosphorylation. Plasma TNFα was measured using an ELISA kit purchased from R&D systems. Spleens were homogenised, extracted in high salt (250 mM NaCl) lysis buffer with phosphatase inhibitors and c-Jun phosphorylation was measured using HTRF. The suppressive effect of compounds was calculated as the percentage reduction of the TNFα level in plasma and P-c-Jun level in spleen as compared with the vehicle-treated animals.

JNK3 = JNK3 (Homo sapiens, UniProt P53779); assay: JNK3 SPA assay; format: biochemical; details: 3.33 μM ATP, GST-c-Jun substrate; read-out: IC50 against JNK3
Outline: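 Radiometric SPA using GST-c-Jun with [γ-33P]ATP in 25 mM HEPES pH 7.5 and 10 mM Mg acetate; the substrate solution held 3.33 µM ATP (JNK2/3) or 2 µM ATP (JNK1). Reactions ran 30 min at room temperature and were stopped with glutathione SPA beads plus 40 mM ATP. IC50 is the concentration halving c-Jun phosphorylation versus control.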

TNFα = assay: LPS-induced TNFα suppression in mice (plasma TNFα, ELISA); format: in vivo, male C57/B16 mice; details: Mus musculus, po; 20 mg/kg p.o. 30 min before LPS 10 mg/kg i.p.; 1 hour after LPS; versus vehicle-treated animals; read-out: Percentage reduction in the level of TNFα in plasma
Description: as §1

Sequence of JNK3 (P53779 whole entry, species assumed): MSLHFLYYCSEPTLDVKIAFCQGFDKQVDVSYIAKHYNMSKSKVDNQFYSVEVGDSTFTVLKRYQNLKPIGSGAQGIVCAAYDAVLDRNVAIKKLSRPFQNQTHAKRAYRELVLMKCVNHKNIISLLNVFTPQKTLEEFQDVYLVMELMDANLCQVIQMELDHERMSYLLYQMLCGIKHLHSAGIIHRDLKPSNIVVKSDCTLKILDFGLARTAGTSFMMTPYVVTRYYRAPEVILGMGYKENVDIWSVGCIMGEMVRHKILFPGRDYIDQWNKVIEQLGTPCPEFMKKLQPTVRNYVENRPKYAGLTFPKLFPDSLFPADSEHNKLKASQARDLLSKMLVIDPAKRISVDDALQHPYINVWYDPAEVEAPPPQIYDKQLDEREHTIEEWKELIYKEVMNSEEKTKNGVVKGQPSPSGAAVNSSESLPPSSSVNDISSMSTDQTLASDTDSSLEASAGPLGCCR

Structure (SMILES) | IC50 (JNK3) | inhibition in vivo at 20 mg/kg (c-Jun phosphorylation) | inhibition in vivo at 20 mg/kg (TNFα)
Cn1cc(-c2c[nH]c3ncc(C4CCCCC4)cc23)cn1 [Compound I-16, 5-cyclohexyl-3-(1-methyl-1H-pyrazol-4-yl)-1H-pyrrolo[2,3-b]pyridine] | 40 nM | 20% | 45%
CC(C)N1CCN([C@H]2CC[C@H](c3cnc4[nH]cc(-c5cnn(C)c5)c4c3)CC2)CC1 [Compound I-43, 5-((1r,4r)-4-(4-isopropylpiperazin-1-yl)cyclohexyl)-3-(1-methyl-1H-pyrazol-4-yl)-1H-pyrrolo[2,3-b]pyridine] | 117 nM | 0% | 74%
Cn1cc(-c2c[nH]c3ncc([C@H]4CC[C@@H](N5CCCC5)CC4)cc23)cn1 [Compound I-23, 3-(1-methyl-1H-pyrazol-4-yl)-5-((1s,4s)-4-(pyrrolidin-1-yl)cyclohexyl)-1H-pyrrolo[2,3-b]pyridine] | 126 nM | 2% | 61%
Cn1cc(-c2c[nH]c3ncc(C4CC5CCC4C5)cc23)cn1 (stereo not drawn) [Compound I-137, 5-(bicyclo[2.2.1]heptan-2-yl)-3-(1-methyl-1H-pyrazol-4-yl)-1H-pyrrolo[2,3-b]pyridine] | 45 nM | 15% | 45%
Cn1cc(-c2c[nH]c3ncc(C4C5CC6CC(C5)CC4C6)cc23)cn1 (stereo not drawn) [Compound I-154, 3-(1-Methyl-1H-pyrazol-4-yl)-5-tricyclo[3.3.1.1˜3,7˜]dec-2-yl-1H-pyrrolo[2,3-b]pyridine] | 62 nM | 33% | 60%
CN1CCCN([C@H]2CC[C@H](c3cnc4[nH]cc(-c5cnn(C)c5)c4c3)CC2)CC1 [Compound I-37, 5-((1r,4r)-4-(4-methyl-1,4-diazepan-1-yl)cyclohexyl)-3-(1-methyl-1H-pyrazol-4-yl)-1H-pyrrolo[2,3-b]pyridine] | 69 nM | -3% | 51%
Cn1cc(-c2c[nH]c3ncc(C4=CCCC5C4C5(C)C)cc23)cn1 (stereo not drawn) [Compound I-141, 5-(7,7-dimethylbicyclo[4.1.0]hept-2-en-2-yl)-3-(1-methyl-1H-pyrazol-4-yl)-1H-pyrrolo[2,3-b]pyridine] | 288 nM | 4% | 43%
Cn1cc(-c2c[nH]c3ncc(C4CCC5(CC4)OCCO5)cc23)cn1 [Compound I-19, 5-(1,4-Dioxa-spiro[4.5]dec-8-yl)-3-(1-methyl-1H-pyrazol-4-yl)-1H-pyrrolo[2,3-b]pyridine] | 25 nM | 32% | 9%
CC(C)N1CCN([C@H]2CC[C@@H](c3cnc4[nH]cc(-c5cnn(C)c5)c4c3)CC2)CC1 [Compound I-44, 5-((1s,4s)-4-(4-isopropylpiperazin-1-yl)cyclohexyl)-3-(1-methyl-1H-pyrazol-4-yl)-1H-pyrrolo[2,3-b]pyridine] | 129 nM | 17% | 58%
Cn1cc(-c2c[nH]c3ncc([C@H]4CC[C@@H](N5CCCOCC5)CC4)cc23)cn1 [Compound I-39, 4-((1s,4s)-4-(3-(1-methyl-1H-pyrazol-4-yl)-1H-pyrrolo[2,3-b]pyridin-5-yl)cyclohexyl)-1,4-oxazepane] | 184 nM | 10% | 67%
CCCN(CCO)[C@H]1CC[C@H](c2cnc3[nH]cc(-c4cnn(C)c4)c3c2)CC1 [Compound I-125, 2-(((1r,4r)-4-(3-(1-methyl-1H-pyrazol-4-yl)-1H-pyrrolo[2,3-b]pyridin-5-yl)cyclohexyl)(propyl)amino)ethanol] | 263 nM |  | 
Cn1cc(-c2c[nH]c3ncc([C@H]4CC[C@@H](N5CCC(F)(F)C5)CC4)cc23)cn1 [Compound I-48, 5-((1s,4s)-4-(3,3-difluoropyrrolidin-1-yl)cyclohexyl)-3-(1-methyl-1H-pyrazol-4-yl)-1H-pyrrolo[2,3-b]pyridine] | 182 nM |  | 
c1nn(CCN2CCOCC2)cc1-c1c[nH]c2ncc([C@H]3CC[C@@H](N4CCOCC4)CC3)cc12 [Compound I-58, 4-(2-(4-(5-((1s,4s)-4-morpholinocyclohexyl)-1H-pyrrolo[2,3-b]pyridin-3-yl)-1H-pyrazol-1-yl)ethyl)morpholine] | > 500 nM |  | 
CC1CC(c2cnc3[nH]cc(-c4cnn(C)c4)c3c2)CC(C)(C)C1 (mixture of isomers) [Compound I-36, 3-(1-methyl-1H-pyrazol-4-yl)-5-(3,3,5-trimethylcyclohexyl)-1H-pyrrolo[2,3-b]pyridine] | 257 nM |  | 
Cn1cc(-c2c[nH]c3ncc([C@H]4CC[C@@H](N5CC[C@H](F)C5)CC4)cc23)cn1 [Compound I-49, 5-((1R,4s)-4-((S)-3-fluoropyrrolidin-1-yl)cyclohexyl)-3-(1-methyl-1H-pyrazol-4-yl)-1H-pyrrolo[2,3-b]pyridine] | 316 nM |  | 
Cn1cc(-c2c[nH]c3ncc(C4CCCC5C4C5(C)C)cc23)cn1 (stereo not drawn) [Compound I-142, 5-(7,7-dimethylbicyclo[4.1.0]heptan-2-yl)-3-(1-methyl-1H-pyrazol-4-yl)-1H-pyrrolo[2,3-b]pyridine] | 155 nM |  | 
CCNC1CCC(c2cnc3[nH]cc(-c4cnn(C)c4)c3c2)CC1 (stereo not drawn) [Compound I-55, Ethyl-{4-[3-(1-methyl-1H-pyrazol-4-yl)-1H-pyrrolo[2,3-b]pyridin-5-yl]-cyclohexyl}-amine] | 263 nM |  | 
CCOCCN[C@H]1CC[C@H](c2cnc3[nH]cc(-c4cnn(C)c4)c3c2)CC1 [Compound I-119, (1r,4r)-N-(2-ethoxyethyl)-4-(3-(1-methyl-1H-pyrazol-4-yl)-1H-pyrrolo[2,3-b]pyridin-5-yl)cyclohexanamine] | 257 nM |  | 

Further lines, with some results ahead:

IC50 (JNK3) | Structure (SMILES) | inhibition in vivo at 20 mg/kg (c-Jun phosphorylation) | inhibition in vivo at 20 mg/kg (TNFα)
76 nM | Cn1cc(-c2c[nH]c3ncc(C4=CC5CCC4C5)cc23)cn1 (stereo not drawn) [Compound I-136, 5-(bicyclo[2.2.1]hept-2-en-2-yl)-3-(1-methyl-1H-pyrazol-4-yl)-1H-pyrrolo[2,3-b]pyridine] | 42% | 87%
60 nM | Cn1cc(-c2c[nH]c3ncc([C@H]4CC[C@@H](N5CCOCC5)CC4)cc23)cn1 [Compound I-7, 4-((1s,4s)-4-(3-(1-methyl-1H-pyrazol-4-yl)-1H-pyrrolo[2,3-b]pyridin-5-yl)cyclohexyl)morpholine] | 18% | 63%
83 nM | Cn1cc(-c2c[nH]c3ncc([C@H]4CC[C@H](N5CCCC5)CC4)cc23)cn1 [Compound I-24, 3-(1-methyl-1H-pyrazol-4-yl)-5-((1r,4r)-4-(pyrrolidin-1-yl)cyclohexyl)-1H-pyrrolo[2,3-b]pyridine] | 23% | 57%
90 nM | CN1CCN([C@H]2CC[C@H](c3cnc4[nH]cc(-c5cnn(C)c5)c4c3)CC2)CC1 [Compound I-25, 3-(1-methyl-1H-pyrazol-4-yl)-5-((1r,4r)-4-(4-methylpiperazin-1-yl)cyclohexyl)-1H-pyrrolo[2,3-b]pyridine] | 25% | 80%
17 nM | Cn1cc(-c2c[nH]c3ncc(C4=CCCC4)cc23)cn1 [Compound I-10, 5-cyclopentenyl-3-(1-methyl-1H-pyrazol-4-yl)-1H-pyrrolo[2,3-b]pyridine] | 75% | 62%
259 nM | Cn1cc(-c2c[nH]c3ncc([C@H]4CC[C@@H](N(C)C)CC4)cc23)cn1 [Compound I-72, (1s,4s)-N,N-dimethyl-4-(3-(1-methyl-1H-pyrazol-4-yl)-1H-pyrrolo[2,3-b]pyridin-5-yl)cyclohexanamine] | 15% | 84%
129 nM | Cn1cc(-c2c[nH]c3ncc([C@H]4CC[C@H](N5CCCOCC5)CC4)cc23)cn1 [Compound I-40, 4-((1r,4r)-4-(3-(1-methyl-1H-pyrazol-4-yl)-1H-pyrrolo[2,3-b]pyridin-5-yl)cyclohexyl)-1,4-oxazepane] | 35% | 61%
94 nM | CN1CCN([C@H]2CC[C@@H](c3cnc4[nH]cc(-c5cnn(C)c5)c4c3)CC2)CC1 [Compound I-26, 3-(1-methyl-1H-pyrazol-4-yl)-5-((1s,4s)-4-(4-methylpiperazin-1-yl)cyclohexyl)-1H-pyrrolo[2,3-b]pyridine] | 16% | 71%
468 nM | CCN(C(C)C)C1CCC(c2cnc3[nH]cc(-c4cnn(C)c4)c3c2)CC1 (mixture of isomers) [Compound I-133, N-ethyl-N-isopropyl-4-(3-(1-methyl-1H-pyrazol-4-yl)-1H-pyrrolo[2,3-b]pyridin-5-yl)cyclohexanamine] |  | 
